Several values for one entry are separate records, joined by “and”; a condition that tells them apart may be missing. Identical values can stand only once.
Tests used:
[1] = test system: G9a and GLP in HUDEP-2 cells; test: Western blotting of G9a and GLP levels in HUDEP-2 cells; type: cell-based, human
Experimental: Preparation of cell lysates and western blotting were performed as described previously. Protein from cells lysates in lysis buffer (50 mM Tris-HCl (pH 7.5), 150 mM NaCl, 5 mM EDTA, 0.1% NP-40, 1 mM dithiothreitol) were separated by sodium dodecyl sulfate–polyacrylamide gel electrophoresis (SDS-PAGE) and transferred to a polyvinylidene difluoride (PVDF) membrane (Millipore) by electroblotting. The membranes incubated with primary antibodies overnight at 4 °C and secondary antibodies for 1 h at room temperature. The immune complexes were detected with the Immobilon Western Chemiluminescent HRP Substrate (Millipore). Luminescence was analyzed on a FUSION SOLO S (Vilber). Western blot bands were visualized using Evolution Capt software (M&S Instruments Inc.). Primary antibodies used were anti-G9a (1:1000, CST, #3306), anti–α-tubulin (1:5000, Abcam, ab18251), anti-H3K9me2 (1:3000, Abcam, ab1220), anti-H3 (1:5000, Abcam, ab1791), anti-H3K27me3 (1:3000, Sigma, 07-449), anti-GLP (1:1000, CST, #35005), anti-FLAG (100 ng/ml, Fujifilm, 01422383), anti-His (1:5000, MBL, PM032), anti-BCL11A (1:1000, abcam, ab19487), anti-ZBTB7A (1:1000, CST, #50565), anti-CHD3 (1:1000, Novus Biologicals, NB100-60412), and anti-CHD4 (1:1000, abcam, ab240640). Uncropped scans of all of the blots are available in Source Data file.

G9a = target: T1, G9a (Homo sapiens, UniProt Q96KQ7); test: biochemical
T1 sequence (Q96KQ7 1-1210): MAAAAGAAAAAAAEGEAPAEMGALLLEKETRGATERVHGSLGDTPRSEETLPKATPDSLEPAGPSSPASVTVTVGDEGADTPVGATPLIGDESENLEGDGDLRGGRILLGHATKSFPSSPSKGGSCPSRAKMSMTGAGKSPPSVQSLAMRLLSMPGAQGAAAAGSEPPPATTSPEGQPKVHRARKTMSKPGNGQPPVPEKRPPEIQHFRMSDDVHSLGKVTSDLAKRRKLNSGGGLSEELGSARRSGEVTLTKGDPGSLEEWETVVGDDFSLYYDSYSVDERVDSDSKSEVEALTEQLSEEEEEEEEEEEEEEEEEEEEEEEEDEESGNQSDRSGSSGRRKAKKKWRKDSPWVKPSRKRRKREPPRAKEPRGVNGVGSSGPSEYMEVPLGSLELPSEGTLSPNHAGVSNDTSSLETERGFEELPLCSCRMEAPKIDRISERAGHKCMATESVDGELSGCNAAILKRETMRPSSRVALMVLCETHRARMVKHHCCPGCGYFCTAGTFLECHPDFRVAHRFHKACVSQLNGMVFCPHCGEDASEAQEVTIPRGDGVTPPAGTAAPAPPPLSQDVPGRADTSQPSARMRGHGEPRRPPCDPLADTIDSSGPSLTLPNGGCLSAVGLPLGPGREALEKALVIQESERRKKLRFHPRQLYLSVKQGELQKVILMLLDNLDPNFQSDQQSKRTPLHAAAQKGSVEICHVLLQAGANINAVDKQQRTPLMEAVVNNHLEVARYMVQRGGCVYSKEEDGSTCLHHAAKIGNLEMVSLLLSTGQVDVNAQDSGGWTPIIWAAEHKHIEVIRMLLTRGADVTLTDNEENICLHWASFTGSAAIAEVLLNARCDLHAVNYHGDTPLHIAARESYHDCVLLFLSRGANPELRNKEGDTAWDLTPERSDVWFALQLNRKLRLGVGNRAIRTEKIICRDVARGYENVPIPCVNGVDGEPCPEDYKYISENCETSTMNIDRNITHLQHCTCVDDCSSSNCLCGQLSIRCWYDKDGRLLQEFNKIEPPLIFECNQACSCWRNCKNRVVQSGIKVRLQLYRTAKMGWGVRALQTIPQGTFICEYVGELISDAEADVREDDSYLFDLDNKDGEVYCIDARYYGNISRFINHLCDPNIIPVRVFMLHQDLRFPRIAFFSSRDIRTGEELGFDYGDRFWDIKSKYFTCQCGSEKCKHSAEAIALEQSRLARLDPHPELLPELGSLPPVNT

Structure (SMILES): Cc1c(C(=O)NC(CCC2CC2)C(=O)Nc2ccc(C#N)cc2)[nH]c2c1C(=O)CC(C)(C)C2 (centres unmarked) [RK-701]
- expression levels of G9a and GLP [1]: did not affect
- IC50 (G9a): 21.8 nM and 23.9 nM

Source: paper PMC9837035 (Nature Communications, 2023)
